Where two headings read alike, the source gives them in different places.
Assays:
Assay in all cases: In vitro antibacterial activity, agar dilution
Type in all cases: cell-based
Streptococcus pneumoniae = details: read-out: Minimal Inhibitory Concentration
Experimental: (§1) The in vitro antibacterial effects of antibiotics LL-E19085α, LL-E19085β, LL-E19085γ, LL-E19085.zeta. and LL-E19085.eta. were determined by standard agar dilution methods against clinical isolates obtained from medical centers representing various geographical areas in the United States. The inoculum of each culture was approximately 1 to 5×10^4 colony forming units applied with a Steers multiple inocula replicator to plates containing the antibiotic in Mueller-Hinton agar. The agar was supplemented with about 5% sheep blood where required for the growth of the organism.

Klebsiella pneumoniae = details: read-out: Minimal Inhibitory Concentration
Experimental: as §1

Bacteroides cereus = details: read-out: Minimal Inhibitory Concentration
Experimental: as §1

Staphylococcus aureus = details: read-out: Minimal Inhibitory Concentration
Experimental: as §1

Enterococcus Grp D = details: strain WRVA 88-33, Mueller-Hinton agar, read-out: Minimal Inhibitory Concentration
Experimental: as §1

[1] = test system: Staphylococcus hemolyticus; details: read-out: Minimal Inhibitory Concentration
Experimental: as §1

[2] = test system: Streptococcus b-hemolyticus; details: strain AMCH 88-86, Mueller-Hinton agar, read-out: Minimal Inhibitory Concentration
Experimental: as §1

Escherichia coli = test system: Escherichia coli
Experimental: as §1

Streptococcus faecalis = details: Enterococcus faecalis, Mueller-Hinton agar, read-out: Minimal Inhibitory Concentration
Experimental: as §1

[3] = test system: Streptococcus a-hemolyticus; details: strain AMCH 88-84, Mueller-Hinton agar, read-out: Minimal Inhibitory Concentration
Experimental: as §1

Enterococcus = details: read-out: Minimal Inhibitory Concentration
Experimental: as §1

erratia rubidea = details: strain UHL 86-4; Mueller-Hinton agar; read-out: Minimal Inhibitory Concentration
Experimental: as §1

Enterobacter cloacae = details: strain VGH 84-37, Mueller-Hinton agar, read-out: Minimal Inhibitory Concentration
Experimental: as §1

Clostridium differensis = details: ATCC17858, strain ATCC 17858, Mueller-Hinton agar, read-out: Minimal Inhibitory Concentration
Experimental: as §1

Peptococcus asacrolytis = details: strain ATCC 29743; Mueller-Hinton agar; read-out: Minimal Inhibitory Concentration
Experimental: as §1

Citrobacter diversis = details: strain MOR 84-3, Mueller-Hinton agar, read-out: Minimal Inhibitory Concentration
Experimental: as §1

Bacteroides fragilis = details: ATCC25285, strain ATCC 25285, Mueller-Hinton agar, read-out: Minimal Inhibitory Concentration
Experimental: as §1

Pseudomonas aeruginosa = details: strain 12-4-4, Mueller-Hinton agar, read-out: Minimal Inhibitory Concentration
Experimental: as §1

Clostridium perfringen = details: ATCC13124, strain ATCC 13124, Mueller-Hinton agar, read-out: Minimal Inhibitory Concentration
Experimental: as §1

[4] = test system: Staphylococcus epidermidis; details: strain IO 83-58, Mueller-Hinton agar, read-out: Minimal Inhibitory Concentration
Experimental: as §1

[5] = test system: Streptococcus β-hemolyticus; details: Mueller-Hinton agar
Experimental: as §1

Bacteroides theta = details: read-out: Minimal Inhibitory Concentration
Experimental: as §1

Alcaligenes ssp. = details: strain ISG 86-34, Mueller-Hinton agar, read-out: Minimal Inhibitory Concentration
Experimental: as §1

Bacteroides vulgaris = details: ATCC29327, strain ATCC 29327, Mueller-Hinton agar, read-out: Minimal Inhibitory Concentration
Experimental: as §1

[6] = test system: Staphylococcus saphrophiticus; details: strain VGH 84-50, Mueller-Hinton agar, read-out: Minimal Inhibitory Concentration
Experimental: as §1

Serratia marcescens = details: strain K 84-14, Mueller-Hinton agar, read-out: Minimal Inhibitory Concentration
Experimental: as §1

Peptococcus magnus = details: Finegoldia magna, Mueller-Hinton agar, read-out: Minimal Inhibitory Concentration
Experimental: as §1

Morganella morganii = details: strain VGH 84-11, Mueller-Hinton agar, read-out: Minimal Inhibitory Concentration
Experimental: as §1

Proteus vulgaris = details: strain CMC 84-35, Mueller-Hinton agar, read-out: Minimal Inhibitory Concentration
Experimental: as §1

[7] = strain CHBB 88-75, Mueller-Hinton agar
[8] = strain CHBM 88-70, Mueller-Hinton agar
[9] = strain TEX 85-2, Mueller-Hinton agar
[10] = strain NEMC 87-271, Mueller-Hinton agar
[11] = ATCC25923, strain ATCC 25923, Mueller-Hinton agar
[12] = ATCC29213, strain ATCC 29213, Mueller-Hinton agar
[13] = strain CMC 83-131, Mueller-Hinton agar
[14] = strain IVES 542, Mueller-Hinton agar
[15] = strain K82-26, Mueller-Hinton agar
[16] = strain NEMC 87-69, Mueller-Hinton agar
[17] = strain ROSE (MP), Mueller-Hinton agar
[18] = strain VGH 84-47, Mueller-Hinton agar
[19] = strain AVAH 88-1, Mueller-Hinton agar
[20] = strain AVAH 88-3, Mueller-Hinton agar
[21] = ATCC25922, strain ATCC 25922, Mueller-Hinton agar, read-out: Minimal Inhibitory Concentration
[22] = ATCC35218, strain ATCC 35218, Mueller-Hinton agar, read-out: Minimal Inhibitory Concentration
[23] = read-out: Minimal Inhibitory Concentration, strain D21, Mueller-Hinton agar
[24] = strain D22, Mueller-Hinton agar, read-out: Minimal Inhibitory Concentration
[25] = strain CHBM 88-60, Mueller-Hinton agar

COc1cc2oc3c(c(=O)c2cc1OC)C(=O)c1c(ccc2cc4c(c(O)c12)C(=O)N1C(C)(C4)OC(=O)C1(C)COC(C)=O)C3=O (centres unmarked) [LL-E19085γ]
8 µg/mL: MIC (Staphylococcus aureus; [14]) | MIC [1, 19]
> 16 µg/mL: MIC (Escherichia coli; [21]) | MIC (Escherichia coli; [22])
1 µg/mL: MIC (Staphylococcus aureus; [12]) | MIC (Staphylococcus aureus; [17]) | MIC (Staphylococcus aureus; [18]) | MIC (Streptococcus faecalis; strain CMC 83-120)
≥ 0.008 µg/mL: MIC (Staphylococcus aureus; [11])
≤ 0.008 µg/mL: MIC (Streptococcus pneumoniae; [7]) | MIC (Streptococcus pneumoniae; [8]) | MIC (Streptococcus pneumoniae; [9]) | MIC (Staphylococcus aureus; [15]) | MIC [2] | MIC [3]
16 µg/mL: MIC (Staphylococcus aureus; [13]) | MIC (Escherichia coli; [24])
4 µg/mL: MIC (Staphylococcus aureus; [16])
0.03 µg/mL: MIC (Streptococcus faecalis; strain VCH 84-69)
≥ 16 µg/mL: MIC (Klebsiella pneumoniae; [10]) | MIC (Escherichia coli; [23])
0.06 µg/mL: MIC (Streptococcus faecalis; strain VCI 85-30)
0.5 µg/mL: MIC (Bacteroides cereus) | MIC (Enterococcus Grp D) | MIC [1, 20] | MIC (Streptococcus faecalis; strain ARUM 87-41) | MIC (Enterococcus; [25])

COc1cc2oc3c(c(=O)c2cc1OC)C(=O)c1c(ccc2cc4c(c(O)c12)C(=O)N1C(C)(C4)OC(=O)C1(C)COC(=O)CC(C)C)C3=O (stereo not drawn) [LL-E19085α]
0.12 µg/mL: MIC (Staphylococcus aureus; [11]) | MIC (Staphylococcus aureus; strain Smith, Mueller-Hinton agar) | MIC (Enterococcus; strain IO 83-40, Mueller-Hinton agar)
> 128 µg/mL: MIC (erratia rubidea) | MIC (Enterobacter cloacae) | MIC (Klebsiella pneumoniae; strain AD, Mueller-Hinton agar) | MIC (Citrobacter diversis) | MIC (Pseudomonas aeruginosa) | MIC (Alcaligenes ssp.) | MIC (Escherichia coli; [21]) | MIC (Escherichia coli; strain No. 311, Mueller-Hinton agar, read-out: Minimal Inhibitory Concentration) | MIC (Serratia marcescens) | MIC (Morganella morganii) | MIC (Proteus vulgaris)
≤ 0.06 µg/mL: MIC (Streptococcus pneumoniae; strain K 84-21, Mueller-Hinton agar) | MIC (Streptococcus pneumoniae; strain SV-1, Mueller-Hinton agar) | MIC (Clostridium differensis) | MIC (Peptococcus asacrolytis) | MIC (Staphylococcus aureus; [12]) | MIC (Staphylococcus aureus; strain CMC 83-127, Mueller-Hinton agar) | MIC (Staphylococcus aureus; [13]) | MIC (Staphylococcus aureus; strain CMC 83-132, Mueller-Hinton agar) | MIC (Staphylococcus aureus; strain SSC 82-57, Mueller-Hinton agar) | MIC (Staphylococcus aureus; strain VGH 84-45, Mueller-Hinton agar) | MIC (Clostridium perfringen) | MIC [4] | MIC ([5]; Streptococcus, strain C 203, read-out: Minimal Inhibitory Concentration) | Minimal Inhibitory Concentration ([5]; strain VGH 84-60) | Minimal Inhibitory Concentration ([5]; strain VGH 84-61) | Minimal Inhibitory Concentration ([5]; strain VGH 84-62) | MIC (Bacteroides vulgaris) | MIC [6] | MIC (Enterococcus; strain CMC 83-72, Mueller-Hinton agar) | MIC (Enterococcus; strain IO 83-28, Mueller-Hinton agar) | MIC (Enterococcus; strain VGH 84-65, Mueller-Hinton agar) | MIC (Enterococcus; strain VGH 84-68, Mueller-Hinton agar) | MIC (Peptococcus magnus; ATCC14956, strain ATCC 14956) | MIC (Peptococcus magnus; ATCC29328, strain ATCC 29328)
4 µg/mL: MIC (Bacteroides theta; ATCC29741, strain ATCC 29741, Mueller-Hinton agar) | MIC (Bacteroides theta; ATCC29742, strain ATCC 29742, Mueller-Hinton agar)
16 µg/mL: MIC (Bacteroides fragilis)

COc1cc2oc3c(c(=O)c2cc1OC)C(=O)c1c(ccc2cc4c(c(O)c12)C(=O)N1C(C)(C4)OC(=O)C1(C)COC(=O)C(C)C)C3=O (stereo not drawn) [LL-E19085β]
≥ 64 µg/mL: MIC (Klebsiella pneumoniae; [10]) | MIC (Escherichia coli; [23])
> 64 µg/mL: MIC (Escherichia coli; [21]) | MIC (Escherichia coli; [22])
0.25 µg/mL: MIC (Streptococcus pneumoniae; [8])
0.5 µg/mL: MIC (Staphylococcus aureus; [11]) | MIC [3]
8 µg/mL: MIC (Escherichia coli; [24])
2 µg/mL: MIC (Bacteroides cereus) | MIC (Staphylococcus aureus; [12]) | MIC (Staphylococcus aureus; [15]) | MIC (Staphylococcus aureus; [17]) | MIC (Enterococcus Grp D) | MIC [1, 19] | MIC [2] | MIC (Streptococcus faecalis; strain ARUM 87-41) | MIC (Streptococcus faecalis; strain CMC 83-120) | MIC (Streptococcus faecalis; strain VCH 84-69) | MIC (Streptococcus faecalis; strain VCI 85-30) | MIC (Enterococcus; [25])
0.12 µg/mL: MIC (Streptococcus pneumoniae; [7]) | MIC (Streptococcus pneumoniae; [9])
4 µg/mL: MIC (Staphylococcus aureus; [13]) | MIC (Staphylococcus aureus; [14]) | MIC (Staphylococcus aureus; [16]) | MIC (Staphylococcus aureus; [18]) | MIC [1, 20]

COc1cc2oc3c(c(=O)c2cc1OC)C(=O)c1c(ccc2cc4c(c(O)c12)C(=O)N1C(C)(C4)OC(=O)C1(C)CO)C3=O (centres unmarked) [LL-E19085.eta.]
2 µg/mL: MIC (Escherichia coli; [24])
≥ 32 µg/mL: MIC (Klebsiella pneumoniae; [10]) | MIC (Escherichia coli; [23])
> 32 µg/mL: MIC (Escherichia coli; [21]) | MIC (Escherichia coli; [22])
≤ 0.015 µg/mL: MIC (Streptococcus pneumoniae; [7]) | MIC (Streptococcus pneumoniae; [8]) | MIC (Streptococcus pneumoniae; [9]) | MIC (Bacteroides cereus) | MIC (Staphylococcus aureus; [11]) | MIC (Staphylococcus aureus; [12]) | MIC (Staphylococcus aureus; [14]) | MIC (Staphylococcus aureus; [15]) | MIC (Staphylococcus aureus; [16]) | MIC (Staphylococcus aureus; [17]) | MIC (Staphylococcus aureus; [18]) | MIC (Enterococcus Grp D) | MIC [1, 19] | MIC [1, 20] | MIC [2] | MIC (Streptococcus faecalis; strain ARUM 87-41) | MIC (Streptococcus faecalis; strain CMC 83-120) | MIC (Streptococcus faecalis; strain VCH 84-69) | MIC (Streptococcus faecalis; strain VCI 85-30) | MIC [3] | MIC (Enterococcus; [25])
0.12 µg/mL: MIC (Staphylococcus aureus; [13])
